# Laboratory results from US20220304978A1, “INHIBITING MESANGIAL CELL ACTIVATION” (Chinook Therapeutics, Inc., priority 2019, published 2022).
# Tested on: kidney tissue of g-ddY mice
# Assay: IPA upstream regulator analysis, g-ddY kidney RNA-seq
# Conditions: 30 mg/kg/day
# [1] = ligand-dependent nuclear receptor
compound,measurement,setting,value
"CCCCN(CCCC)C(=O)CN1C[C@H](c2ccc3c(c2)OCO3)[C@@H](C(=O)O)[C@@H]1c1ccc(OC)cc1 [atrasentan, (2R,3R,4S)-4-(1,3-benzodioxol-5-yl)-1-[2-(dibutylamino)-2-oxoethyl]-2-(4-methoxyphenyl)pyrrolidine-3-carboxylic acid]",AHR Activation z-score,[1],2.092
same,AHR Predicted Activation State,[1],Activated
same,ESR1 Activation z-score,[1],−2.439
same,ESR1 Predicted Activation State,[1],Inhibited
same,ESRRA Activation z-score,[1],2.517
same,ESRRA Predicted Activation State,[1],Activated
same,NR3C2 Activation z-score,[1],−2.191
same,NR3C2 Predicted Activation State,[1],Inhibited
same,NR4A1 Activation z-score,[1],−2.488
same,NR4A1 Predicted Activation State,[1],Inhibited
same,PPARA Activation z-score,[1],3.182
same,PPARA Predicted Activation State,[1],Activated
same,PPARG Activation z-score,[1],3.581
same,PPARG Predicted Activation State,[1],Activated
same,RXRA Activation z-score,[1],2.96
same,RXRA Predicted Activation State,[1],Activated
same,ARNT2 Activation z-score,transcription regulator,−2.079
same,ARNT2 Predicted Activation State,transcription regulator,Inhibited
same,BCL6 Activation z-score,transcription regulator,2.514
same,BCL6 Predicted Activation State,transcription regulator,Activated
same,CBX5 Activation z-score,transcription regulator,2.355
same,CBX5 Predicted Activation State,transcription regulator,Activated
same,CCND1 Activation z-score,transcription regulator,−3.003
same,CCND1 Predicted Activation State,transcription regulator,Inhibited
same,CEBPD Activation z-score,transcription regulator,−2.154
same,CEBPD Predicted Activation State,transcription regulator,Inhibited
same,CTNNB1 Activation z-score,transcription regulator,−3.373
same,CTNNB1 Predicted Activation State,transcription regulator,Inhibited
same,DACH1 Activation z-score,transcription regulator,2.354
same,DACH1 Predicted Activation State,transcription regulator,Activated
same,ECSIT Activation z-score,transcription regulator,−2.72
same,ECSIT Predicted Activation State,transcription regulator,Inhibited
same,EGR1 Activation z-score,transcription regulator,−2.766
same,EGR1 Predicted Activation State,transcription regulator,Inhibited
same,ELK1 Activation z-score,transcription regulator,−2.151
same,ELK1 Predicted Activation State,transcription regulator,Inhibited
same,ERG Activation z-score,transcription regulator,−3.672
same,ERG Predicted Activation State,transcription regulator,Inhibited
same,ETS1 Activation z-score,transcription regulator,−2.096
same,ETS1 Predicted Activation State,transcription regulator,Inhibited
same,FEV Activation z-score,transcription regulator,−3.651
same,FEV Predicted Activation State,transcription regulator,Inhibited
same,FOXC1 Activation z-score,transcription regulator,−2.563
same,FOXC1 Predicted Activation State,transcription regulator,Inhibited
same,FOXC2 Activation z-score,transcription regulator,−3.361
same,FOXC2 Predicted Activation State,transcription regulator,Inhibited
same,FOXF1 Activation z-score,transcription regulator,−2.253
same,FOXF1 Predicted Activation State,transcription regulator,Inhibited
same,FOXL2 Activation z-score,transcription regulator,−3.108
same,FOXL2 Predicted Activation State,transcription regulator,Inhibited
same,FOXM1 Activation z-score,transcription regulator,−2.307
same,FOXM1 Predicted Activation State,transcription regulator,Inhibited
same,FOXO3 Activation z-score,transcription regulator,2.338
same,FOXO3 Predicted Activation State,transcription regulator,Activated
same,GATA1 Activation z-score,transcription regulator,−3.309
same,GATA1 Predicted Activation State,transcription regulator,Inhibited
same,GFI1 Activation z-score,transcription regulator,2.82
same,GFI1 Predicted Activation State,transcription regulator,Activated
same,GPS2 Activation z-score,transcription regulator,2.51
same,GPS2 Predicted Activation State,transcription regulator,Activated
same,HIF1A Activation z-score,transcription regulator,−2.042
same,HIF1A Predicted Activation State,transcription regulator,Inhibited
same,HNF1A Activation z-score,transcription regulator,4.107
same,HNF1A Predicted Activation State,transcription regulator,Activated
same,HNF1B Activation z-score,transcription regulator,2.944
same,HNF1B Predicted Activation State,transcription regulator,Activated
same,HNF4A Activation z-score,transcription regulator,4.856
same,HNF4A Predicted Activation State,transcription regulator,Activated
same,HOXC6 Activation z-score,transcription regulator,−2.35
same,HOXC6 Predicted Activation State,transcription regulator,Inhibited
same,IKZF1 Activation z-score,transcription regulator,3.472
same,IKZF1 Predicted Activation State,transcription regulator,Activated
same,IKZF3 Activation z-score,transcription regulator,3.165
same,IKZF3 Predicted Activation State,transcription regulator,Activated
same,IRF7 Activation z-score,transcription regulator,−4.492
same,IRF7 Predicted Activation State,transcription regulator,Inhibited
same,IRF8 Activation z-score,transcription regulator,−2.577
same,IRF8 Predicted Activation State,transcription regulator,Inhibited
same,JUNB Activation z-score,transcription regulator,−3.721
same,JUNB Predicted Activation State,transcription regulator,Inhibited
same,KDM5A Activation z-score,transcription regulator,−5.858
same,KDM5A Predicted Activation State,transcription regulator,Inhibited
same,KLF2 Activation z-score,transcription regulator,2.742
same,KLF2 Predicted Activation State,transcription regulator,Activated
same,KLF4 Activation z-score,transcription regulator,−3.94
same,KLF4 Predicted Activation State,transcription regulator,Inhibited
same,KLF15 Activation z-score,transcription regulator,3.401
same,KLF15 Predicted Activation State,transcription regulator,Activated
same,KMT2A Activation z-score,transcription regulator,−2.246
same,KMT2A Predicted Activation State,transcription regulator,Inhibited
same,LHX1 Activation z-score,transcription regulator,4.214
same,LHX1 Predicted Activation State,transcription regulator,Activated
same,MECP2 Activation z-score,transcription regulator,−2.419
same,MECP2 Predicted Activation State,transcription regulator,Inhibited
same,MEF2D Activation z-score,transcription regulator,−3.056
same,MEF2D Predicted Activation State,transcription regulator,Inhibited
same,MEOX2 Activation z-score,transcription regulator,2.54
same,MEOX2 Predicted Activation State,transcription regulator,Activated
same,MESP1 Activation z-score,transcription regulator,−2.646
same,MESP1 Predicted Activation State,transcription regulator,Inhibited
same,MESP2 Activation z-score,transcription regulator,−2.449
same,MESP2 Predicted Activation State,transcription regulator,Inhibited
same,MLXIPL Activation z-score,transcription regulator,2.871
same,MLXIPL Predicted Activation State,transcription regulator,Activated
same,MRTFA Activation z-score,transcription regulator,−3.84
same,MRTFA Predicted Activation State,transcription regulator,Inhibited
same,MRTFB Activation z-score,transcription regulator,−4.734
same,MRTFB Predicted Activation State,transcription regulator,Inhibited
same,MTPN Activation z-score,transcription regulator,−2.942
same,MTPN Predicted Activation State,transcription regulator,Inhibited
same,MYCN Activation z-score,transcription regulator,4.584
same,MYCN Predicted Activation State,transcription regulator,Activated
same,Msx3 Activation z-score,transcription regulator,−2
same,Msx3 Predicted Activation State,transcription regulator,Inhibited
same,NCOA3 Activation z-score,transcription regulator,−2.143
same,NCOA3 Predicted Activation State,transcription regulator,Inhibited
same,NEUROG1 Activation z-score,transcription regulator,3
same,NEUROG1 Predicted Activation State,transcription regulator,Activated
same,NFE2L2 Activation z-score,transcription regulator,3.389
same,NFE2L2 Predicted Activation State,transcription regulator,Activated
same,NFKB1 Activation z-score,transcription regulator,−3.239
same,NFKB1 Predicted Activation State,transcription regulator,Inhibited
same,NRIP1 Activation z-score,transcription regulator,−2.267
same,NRIP1 Predicted Activation State,transcription regulator,Inhibited
same,PAX7 Activation z-score,transcription regulator,−2.883
same,PAX7 Predicted Activation State,transcription regulator,Inhibited
same,PCGF2 Activation z-score,transcription regulator,2
same,PCGF2 Predicted Activation State,transcription regulator,Activated
same,PDX1 Activation z-score,transcription regulator,−2.958
same,PDX1 Predicted Activation State,transcription regulator,Inhibited
same,PITX2 Activation z-score,transcription regulator,3.976
same,PITX2 Predicted Activation State,transcription regulator,Activated
same,PPARGC1A Activation z-score,transcription regulator,8.123
same,PPARGC1A Predicted Activation State,transcription regulator,Activated
same,PPARGC1B Activation z-score,transcription regulator,2.664
same,PPARGC1B Predicted Activation State,transcription regulator,Activated
same,PRDM1 Activation z-score,transcription regulator,2.281
same,PRDM1 Predicted Activation State,transcription regulator,Activated
same,RB1 Activation z-score,transcription regulator,4.435
same,RB1 Predicted Activation State,transcription regulator,Activated
same,REL Activation z-score,transcription regulator,−2.451
same,REL Predicted Activation State,transcription regulator,Inhibited
same,RELA Activation z-score,transcription regulator,−4.344
same,RELA Predicted Activation State,transcription regulator,Inhibited
same,RUNX3 Activation z-score,transcription regulator,3.355
same,RUNX3 Predicted Activation State,transcription regulator,Activated
same,SMAD2 Activation z-score,transcription regulator,−2.323
same,SMAD2 Predicted Activation State,transcription regulator,Inhibited
same,SMAD3 Activation z-score,transcription regulator,−2.952
same,SMAD3 Predicted Activation State,transcription regulator,Inhibited
same,SMAD4 Activation z-score,transcription regulator,−2.417
same,SMAD4 Predicted Activation State,transcription regulator,Inhibited
same,SMAD7 Activation z-score,transcription regulator,3.504
same,SMAD7 Predicted Activation State,transcription regulator,Activated
same,SMARCA4 Activation z-score,transcription regulator,−3.211
same,SMARCA4 Predicted Activation State,transcription regulator,Inhibited
same,SMYD1 Activation z-score,transcription regulator,2.213
same,SMYD1 Predicted Activation State,transcription regulator,Activated
same,SNAI1 Activation z-score,transcription regulator,−2.699
same,SNAI1 Predicted Activation State,transcription regulator,Inhibited
same,SOX4 Activation z-score,transcription regulator,−2.397
same,SOX4 Predicted Activation State,transcription regulator,Inhibited
same,SP1 Activation z-score,transcription regulator,−2.444
same,SP1 Predicted Activation State,transcription regulator,Inhibited
same,SPDEF Activation z-score,transcription regulator,4.415
same,SPDEF Predicted Activation State,transcription regulator,Activated
same,SPI1 Activation z-score,transcription regulator,−3.51
same,SPI1 Predicted Activation State,transcription regulator,Inhibited
same,SPIB Activation z-score,transcription regulator,−2.933
same,SPIB Predicted Activation State,transcription regulator,Inhibited
same,SPZ1 Activation z-score,transcription regulator,−2.022
same,SPZ1 Predicted Activation State,transcription regulator,Inhibited
same,SREBF2 Activation z-score,transcription regulator,2.277
same,SREBF2 Predicted Activation State,transcription regulator,Activated
same,SRF Activation z-score,transcription regulator,−3.269
same,SRF Predicted Activation State,transcription regulator,Inhibited
same,SRSF2 Activation z-score,transcription regulator,2.328
same,SRSF2 Predicted Activation State,transcription regulator,Activated
same,STAT1 Activation z-score,transcription regulator,−3.918
same,STAT1 Predicted Activation State,transcription regulator,Inhibited
same,STAT3 Activation z-score,transcription regulator,−4.716
same,STAT3 Predicted Activation State,transcription regulator,Inhibited
same,STAT4 Activation z-score,transcription regulator,−2.401
same,STAT4 Predicted Activation State,transcription regulator,Inhibited
same,TCF4 Activation z-score,transcription regulator,−2.836
same,TCF4 Predicted Activation State,transcription regulator,Inhibited
same,TCF7L1 Activation z-score,transcription regulator,2.373
same,TCF7L1 Predicted Activation State,transcription regulator,Activated
same,TEAD1 Activation z-score,transcription regulator,−3.036
same,TEAD1 Predicted Activation State,transcription regulator,Inhibited
same,TEAD2 Activation z-score,transcription regulator,−3.153
same,TEAD2 Predicted Activation State,transcription regulator,Inhibited
same,TEAD3 Activation z-score,transcription regulator,−3.638
same,TEAD3 Predicted Activation State,transcription regulator,Inhibited
same,TEAD4 Activation z-score,transcription regulator,−2.143
same,TEAD4 Predicted Activation State,transcription regulator,Inhibited
same,TFAP2C Activation z-score,transcription regulator,2.899
same,TFAP2C Predicted Activation State,transcription regulator,Activated
same,TFEB Activation z-score,transcription regulator,2.587
same,TFEB Predicted Activation State,transcription regulator,Activated
same,TP53 Activation z-score,transcription regulator,−3.365
same,TP53 Predicted Activation State,transcription regulator,Inhibited
same,TWIST1 Activation z-score,transcription regulator,−2.987
same,TWIST1 Predicted Activation State,transcription regulator,Inhibited
same,Tcf7 Activation z-score,transcription regulator,−3.984
same,Tcf7 Predicted Activation State,transcription regulator,Inhibited
same,XBP1 Activation z-score,transcription regulator,3.505
same,XBP1 Predicted Activation State,transcription regulator,Activated
same,YAP1 Activation z-score,transcription regulator,−4.255
same,YAP1 Predicted Activation State,transcription regulator,Inhibited
